Here are results for eleven compounds from ChEMBL document CHEMBL1201862, “PubChem BioAssay data set” (2004).

Molecules are shown by their SMILES.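 Test compounds were applied to cells in 96-well plates for 48 hours at 5 doses. Here, GI50 denotes the concentration required for 50% inhibition of growth.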 Active and inactive are the calls of the source. Cut-off read from the data, not from the text of the source: active = GI50 up to about 1.1 µM and inactive = higher. Where only a bound is given, the exact number is not on record here.

Holding throughout (assay): NCI anticancer screen, dose series, 48 h
Assay [1] relates to SNB-75.
Assay [2] concerns ACHN.
Assay [3] deals with SW-620.
The subject of assay [4] is U-251.
In assay [5] the test system is MDA-MB-231.
The test system of assay [6] is OVCAR-5.
Assay [7] concerns NCI/ADR-RES.
The test system of assay [8] is SF-539.
In assay [9] the test system is OVCAR-3.
The test system of assay [10] is MOLT-4.
In assay [11] the test system is SK-MEL-2.
In assay [12] the test system is HT-29.
Assay [13] relates to MDA-MB-435.
The subject of assay [14] is RXF 393.
For assay [15], the system named is SK-MEL-5.
In assay [16] the test system is KM12.
Assay [17] relates to M14.
The test system of assay [18] is NCI-H226.
The test system of assay [19] is A549.
Assay [20] relates to HCC 2998.

On to `NS(=O)(=O)c1ccc(/N=N/c2ncccc2O)cc1`, for which the GI50 in assay [1] is > 100 µM (inactive); in assay [2], > 100 µM (inactive); in assay [3], 57.3 µM (inactive); in assay [4], > 100 µM (inactive); in assay [5], > 100 µM (inactive); in assay [6] it was > 100 µM (inactive). For the same compound, the GI50 in assay [7] was > 100 µM (inactive); in [8], 55.6 µM (inactive); in assay [9] it was 33.7 µM (inactive); in [10], 22.6 µM (inactive); in assay [11], > 100 µM (inactive); in assay [12] it was > 100 µM (inactive). Besides, the GI50 is > 100 µM (inactive) in [13]; > 100 µM (inactive) in assay [14]; > 100 µM (inactive) in assay [15]; 60.5 µM (inactive) in assay [16]; > 100 µM (inactive) in assay [17]; > 100 µM (inactive) in assay [18]. Also, the GI50 in [19] is > 100 µM (inactive).

`C=CCNS(=O)(=O)c1ncnc2[nH]cnc12`: the GI50 in [1], in [2], in [3], in assay [4], in assay [5] and in [6] was > 100 µM (inactive) throughout. Besides, the GI50 is > 100 µM (inactive) in assay [7]; > 100 µM (inactive) in [9]; 14.2 µM (inactive) in assay [10]; > 100 µM (inactive) in assay [11]; > 100 µM (inactive) in [12]; > 100 µM (inactive) in assay [13]. The GI50 was 59.7 µM (inactive) in assay [14]; > 100 µM (inactive) in assay [15]; > 100 µM (inactive) in assay [16]; > 100 µM (inactive) in assay [17]; > 100 µM (inactive) in assay [18]; > 100 µM (inactive) in assay [19].

In the case of `Cc1nc(O)c(Cc2ccccc2O)c(-c2ccccc2)n1`, the GI50 was 22.4 µM (inactive) in assay [1]; > 100 µM (inactive) in [2]; > 100 µM (inactive) in [3]; > 100 µM (inactive) in [4]; 98.9 µM (inactive) in [5]; > 100 µM (inactive) in assay [6]. The GI50 in [7] was > 100 µM (inactive); in assay [8], > 100 µM (inactive); in assay [9], > 100 µM (inactive); in assay [10], > 100 µM (inactive); in [11], > 100 µM (inactive); in assay [12], 87.5 µM (inactive). For the same compound, the GI50 in assay [13], in assay [14], in assay [15], in assay [16], in [17] and in [18] was > 100 µM (inactive) in each case. For the same compound, the GI50 in assay [19] is > 100 µM (inactive).

For the compound `CN(C)Cc1nsc(N(C)C)n1`, the GI50 in assay [1], in assay [2], in [3], in assay [4], in assay [5] and in [6] was > 100 µM (inactive) throughout. The GI50 in [7], in assay [8], in [9], in assay [11], in assay [12] and in [13] was > 100 µM (inactive) each time. Further, the GI50 in assay [14], in [15], in [16], in assay [17], in [18] and in assay [19] was > 100 µM (inactive) throughout.

With `Cc1ccc(S[C@@H](C)[C@@](O)(CF)CN(Cc2ccccc2)C(=O)C(F)(F)F)cc1`, the GI50 in [2] is 22.1 µM (inactive); in assay [3], 23.9 µM (inactive); in [4], 19 µM (inactive); in assay [5], 22.4 µM (inactive); in assay [6] it was 14.8 µM (inactive); in assay [7], 20.6 µM (inactive). For the same compound, the GI50 was 13.7 µM (inactive) in [9]; 18.5 µM (inactive) in assay [11]; 10.3 µM (inactive) in assay [12]; 19.6 µM (inactive) in assay [13]; 17.1 µM (inactive) in assay [17]; 14.8 µM (inactive) in assay [19]. Moreover, the GI50 in [20] was 18.3 µM (inactive).

As for `C=C(C)C1CCC2=CC(CC3(C)OC3C3=CC(C(=O)OC)=C(C1)O3)OC2=O` (stereo not drawn), the GI50 in [1] was 56.2 µM (inactive); in assay [2], > 100 µM (inactive); in assay [3], > 100 µM (inactive); in assay [4], > 100 µM (inactive); in [5] it was 93.3 µM (inactive); in [6], > 100 µM (inactive). Also, the GI50 was > 100 µM (inactive) in assay [7]; 73.3 µM (inactive) in assay [8]; > 100 µM (inactive) in assay [9]; 36.9 µM (inactive) in [10]; > 100 µM (inactive) in assay [11]; > 100 µM (inactive) in assay [12]. For the same compound, the GI50 in assay [13] is > 100 µM (inactive); in assay [14] it was 52.5 µM (inactive); in assay [15] it was 72.3 µM (inactive); in assay [16] it was 98.4 µM (inactive); in assay [17] it was > 100 µM (inactive); in assay [18] it was > 100 µM (inactive). Besides, the GI50 in assay [19] was > 100 µM (inactive).

Consider `Cc1ccc(S(=O)(=O)N2CCCSCCSCCCSCC2)cc1`, for which the GI50 in assay [1] is 86.7 µM (inactive); in assay [3], > 100 µM (inactive); in assay [4] it was > 100 µM (inactive); in assay [5] it was > 100 µM (inactive); in assay [6], > 100 µM (inactive); in assay [7] it was > 100 µM (inactive). Also, the GI50 in assay [8], in [9], in [10], in assay [12], in [13] and in assay [15] was > 100 µM (inactive) each time. Also, the GI50 in [16], in assay [17], in assay [19] and in assay [20] was > 100 µM (inactive) in each case.

Regarding `COc1cc(C2OC(N)=C(C#N)C3=C2C(C)CCC3)cc(OC)c1OC` (stereo not drawn), the GI50 in [1] is 10.9 µM (inactive); in assay [2], 97.9 µM (inactive); in assay [3] it was > 100 µM (inactive); in assay [4], > 100 µM (inactive); in [5], 30.3 µM (inactive); in assay [6] it was > 100 µM (inactive). The GI50 in [7] was > 100 µM (inactive); in assay [8], 11.9 µM (inactive); in [9], > 100 µM (inactive); in assay [10], 34.2 µM (inactive); in [11] it was 71.8 µM (inactive); in assay [12] it was > 100 µM (inactive). Also, the GI50 in [13] is > 100 µM (inactive); in assay [14], 21.9 µM (inactive); in [15], > 100 µM (inactive); in assay [16], > 100 µM (inactive); in [17], > 100 µM (inactive); in [18], 68.7 µM (inactive).

As to `COc1ccc2c(c1)SC1=Nc3sc4cc(OC)ccc4[n+]3CN12`, the GI50 in [2] is 49.8 µM (inactive); in assay [3] it was 35.7 µM (inactive); in [4], 4.34 µM (inactive); in assay [5] it was 29 µM (inactive); in [6], 96.2 µM (inactive); in assay [7], 99.3 µM (inactive). Further, the GI50 is 42.2 µM (inactive) in assay [8]; 2.72 µM (inactive) in assay [9]; 4.62 µM (inactive) in [10]; 15.8 µM (inactive) in assay [11]; 16.2 µM (inactive) in assay [12]; 26.9 µM (inactive) in [13]. Besides, the GI50 in assay [15] is 4.1 µM (inactive); in [16] it was 11.2 µM (inactive); in assay [17], 33.1 µM (inactive); in assay [19] it was 29.1 µM (inactive).

For the compound `CCCCCCCCCCCCCCCCCCN(C)CC(COC)OP(=O)([O-])OCC[N+](C)(C)C` (stereo not drawn), the GI50 in [1] is 1.01 µM (active); in assay [2], 1.91 µM (inactive); in [3], 3.15 µM (inactive); in assay [4], 0.891 µM (active); in [6], 1.72 µM (inactive); in [7] it was 17.9 µM (inactive). Further, the GI50 in assay [8] was 3.84 µM (inactive); in assay [9] it was 2.24 µM (inactive); in assay [10], 2.83 µM (inactive); in assay [11], 14.4 µM (inactive); in assay [12], 1.28 µM (inactive); in [13], 5.08 µM (inactive). Moreover, the GI50 was 0.824 µM (active) in assay [14]; 9.44 µM (inactive) in assay [15]; 0.644 µM (active) in assay [16]; 4.11 µM (inactive) in assay [17]; 4.32 µM (inactive) in assay [18]; 1.78 µM (inactive) in assay [19]. The GI50 in assay [20] was 1.42 µM (inactive).

`CCOC(=O)c1c(O)cc(=O)[nH]c1N1CCOCC1`: the GI50 in [1], in assay [2], in assay [3], in assay [4], in assay [6] and in assay [7] was > 100 µM (inactive) in each case. In addition, the GI50 in assay [8], in assay [9], in assay [10], in assay [11], in assay [12] and in assay [13] was > 100 µM (inactive) each time. The GI50 in [15], in assay [16], in assay [17], in assay [18], in assay [19] and in assay [20] was > 100 µM (inactive) in each case.
